Values joined by “and” are separate entries in the source; they are usually repeats but may differ in a detail not shown here. Identical values can stand only once.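 A five-concentration, 48-hour dose response in 96-well plates underlies each endpoint, interpolated linearly between surrounding concentrations. GI50 is the concentration that inhibits growth by half. TGI is the concentration that stops growth completely.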 Starred links: 1 amine or outer side, 2 acyl side, 3 side chain; linkers in the order of their positions; H or OH if unused. Positions of bridges follow the written chain, without caps; N, C: chain ends. Non-standard residues stand in square brackets, D forms with d. Residues, ends and D or L forms follow the SMILES beside them. Chains are numbered I, II in the order given. Actinocin(9to1) = Cc1c2oc3c(C)ccc(C(=O)[*:1])c3nc-2c(C(=O)[*:2])c(N)c1=O; NMeY = CN[CH](Cc1ccc(O)cc1)C(=O)O; Sar = CNCC(=O)O
Key:
Test in all cases: DTP human tumour cell line panel, 48 h
T-47D breast = test system: T-47D breast
A549 NSCLC = test system: A549 NSCLC
OVCAR-3 ovarian = test system: OVCAR-3 ovarian
UO-31 renal = test system: UO-31 renal
COLO 205 colon = test system: COLO 205 colon
SW-620 colon = test system: SW-620 colon
MDA-MB-231 breast = test system: MDA-MB-231 breast
TK-10 renal = test system: TK-10 renal
K-562 leukemia = test system: K-562 leukemia
SN12C renal = test system: SN12C renal
HT29 colon = test system: HT29 colon

SMILES	TGI (T-47D breast) [µM]	TGI (A549 NSCLC) [µM]	TGI (OVCAR-3 ovarian) [µM]	TGI (UO-31 renal)	TGI (COLO 205 colon)	TGI (SW-620 colon) [µM]	TGI (MDA-MB-231 breast) [µM]	TGI (TK-10 renal) [µM]	TGI (K-562 leukemia) [µM]	TGI (SN12C renal) [µM]	TGI (HT29 colon)	GI50 (T-47D breast)	GI50 (A549 NSCLC)	GI50 (OVCAR-3 ovarian)	GI50 (UO-31 renal)	GI50 (COLO 205 colon)	GI50 (MDA-MB-231 breast)	GI50 (TK-10 renal) [µM]	GI50 (K-562 leukemia)	GI50 (HT29 colon)
N#Cc1n[nH]n(-c2ccc(Br)cc2)c1=O	> 100	> 100	> 100	> 100 µM	> 100 µM	> 100	> 100	> 100	> 100	> 100	> 100 µM									
O=S(=O)(O)CCCc1cccc2ccccc12	> 100	> 100	> 100	> 100 µM	> 100 µM	> 100	> 100	> 100	> 100	> 100	> 100 µM									
COc1cccc(CCNC(=O)Cc2ccccc2CCO)c1	> 100	> 100	> 100	> 100 µM	> 100 µM	> 100	> 100	> 100	> 100	> 100	> 100 µM									
O=[N+]([O-])c1ccc(CN(CCCl)OCCCl)cc1	> 100	> 100	> 100	> 100 µM	> 100 µM	> 100	> 100	> 100	> 100	> 100	> 100 µM									
CC(C)(C)OC(=O)NC1CCCCC1NC(=O)C(=O)NC1CCCCC1NC(=O)OC(C)(C)C (configuration not stated)	> 100	> 100	> 100	> 100 µM	> 100 µM	> 100	> 100	> 100	> 100	> 100	> 100 µM									
COc1cc(C2c3cc4c(cc3OC(N3CCCCC3)C2C)OCO4)cc(OC)c1O (configuration not stated)	> 60.2	27.1	19.8	34.8 µM	38.6 µM	21.9	28.1	38.5	> 100	27.5	> 37.5 µM									
CN(C)c1ccc(/C=c2/c3ccccc3n3c2c2c([n+]3C)CCCC2)cc1	0.362	1.96	1.17	6.5 µM	0.168 µM	10.5	2.79	1.55	2.85	1.59	1.61 µM									
Cc1c2oc3c(C)ccc(C(=O)NC4C(=O)NC(C(C)C)C(=O)N5CCCC5C(=O)N(C)CC(=O)N(C)C(Cc5ccc(O)cc5)C(=O)OC4C)c3nc-2c(C(=O)NC2C(=O)NC(C(C)C)C(=O)N3CCCC3C(=O)N(C)CC(=O)N(C)C(Cc3ccc(O)cc3)C(=O)OC2C)c(N)c1=O (configuration not stated) (I: TVP[Sar][NMeY] / II: TVP[Sar][NMeY]; ester I:1-I:C, II:1-II:C; linker I:N-II:N via Actinocin(9to1); configuration not given here)	> 0.334	> 1		> 1 µM and 0.459 µM	0.216 µM and 0.0889 µM	> 1	> 1	> 1	> 1	> 1	0.377 µM and > 0.412 µM	0.0103 µM and 0.00457 µM	0.0499 µM and 0.0119 µM	0.0176 µM and 0.00646 µM	> 0.726 µM and 0.0874 µM	0.0175 µM and 0.00568 µM	0.136 µM and 0.0318 µM	0.117	0.00338 µM and 0.000595 µM	0.00859 µM and 0.00267 µM
CCOC1(OCC)C2C=CC1C(COS(=O)(=O)c1ccc(C)cc1)C2COS(=O)(=O)c1ccc(C)cc1 (configuration not stated)	85.1	> 100	> 100	> 100 µM	50.7 µM	> 100	69.5	> 100	> 100	> 100	> 100 µM									

— PubChem BioAssay (NCI)
